# Data: PMC11063903, “Engineering a human P2X2 receptor with altered ligand selectivity in yeast” (The Journal of Biological Chemistry, 2024)
# Positions count from the first letter of the chain named.
# What was measured:
# P2X2 F301W+F303Y = biological target: T1, P2X2 F301W+F303Y (Homo sapiens, UniProt Q9UBL9, F301W/F303Y); assay: Fast GCaMP-mScarletI assay in yeast, P2X2 F301W+F303Y; assay type: cell-based; details: n = 3; for Bottom, best fit value / Hillslope, best fit value / Top, best fit value: four-parameter logistic fit of ΔF/ΔT; for EC50: four-parameter logistic fit, unit inferred, unit M, read-out: EC50, best fit value
# T1 construct: expressed in transfected cells; host or cells: S. cerevisiae BY4741 background
# T1 sequence (Q9UBL9 1-471 F301W/F303Y): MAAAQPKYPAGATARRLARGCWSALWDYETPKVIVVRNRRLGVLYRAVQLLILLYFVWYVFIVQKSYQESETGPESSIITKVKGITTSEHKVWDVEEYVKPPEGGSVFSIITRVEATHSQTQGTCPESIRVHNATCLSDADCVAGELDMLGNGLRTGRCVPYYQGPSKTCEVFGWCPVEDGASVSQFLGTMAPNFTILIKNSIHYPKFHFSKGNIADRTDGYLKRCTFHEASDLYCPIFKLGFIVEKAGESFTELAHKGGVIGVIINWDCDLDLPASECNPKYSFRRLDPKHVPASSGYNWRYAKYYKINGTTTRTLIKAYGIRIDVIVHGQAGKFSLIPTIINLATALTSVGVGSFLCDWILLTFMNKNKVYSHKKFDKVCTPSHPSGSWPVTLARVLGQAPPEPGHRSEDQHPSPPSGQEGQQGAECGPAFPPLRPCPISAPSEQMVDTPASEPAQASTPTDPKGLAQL
# Procedure: (§1) Figure 4 Unnatural-ligand gating in LBD libraries.A, WT P2X2 was tested with 1 mM ATP, 500 μM AMP-PNP, and compared to ATP with the broken receptor (K81C K83C) control with 1 mM ATP in the fast GCaMP-mScarletI assay (n = 3). […] B, heat map summarizing AMP-PNP signaling (ΔF/ΔT, fast GCaMP-mScarletI assay) in the site-saturation libraries (n = 2–3). All values are normalized to WT P2X2 with saturating amounts of AMP-PNP (500 μM) and therefore represent low signal (ΔF/ΔT) compared to the ATP ligand. C, F301W, F303Y, and A304W were combinatorially combined and tested against the WT, K81C K83C broken P2X2, and the single mutant clones with both ATP (1 mM, black) and AMP-PNP (500 μM, pink). […] Values here represent signal onset and are not normalized to a positive control (n = 2–5). D–K, dose response of each P2X variant with both ATP (black) and AMP-PNP (pink) in the fast GCaMP-mScarletI assay (n = 3). Statistics were performed via one-way ANOVA with Dunnett’s multiple comparisons with to the “broken” K81C K83C negative control. ∗ represents a p value ≤0.05, ∗∗ is p ≤ 0.01, and ∗∗∗ is p ≤ 0.001.
# (§2) The combined mutations were synergistic, with F303Y + A304W having a predicted additive effect of ca. Ten-fold, relative to the 73-fold seen.
# (§3) GCaMP assays were performed as follows. P2X2 GCaMP strains were designed with a bi-cistronic reporter, in which the GCaMP protein was followed by a 2A peptide and a mScarletI reporter ([53]). The co-translated mScarletI was designed to act as a control for plasmid loss, GCaMP breakage via nonsense mutation, and contamination. […] P2X2-GCaMP strains were cultured and induced as previously described. Samples were induced for 24 h to allow for the accumulation of the mature GCaMP protein. Cells were washed three times in 0.1 M MES/Tris buffer and resuspended with MES/Tris with supplemental calcium. Cells were loaded onto a black, clear bottom microplate and imaged on a FlexStation3 plate reader. Samples were imaged in “flex” mode. Samples were imaged for 48 s at an interval of 1.6 s. Fluorescence was measured with an excitation at 485 nm, and emission 525 nm. At the 21 s mark, 100 μl ligand solution was transferred to the cells. For strains with mScarlet, fluorescence was read with excitation 570 nm/emission 610 nm. Slopes were calculated from the last 6 points of measurement and were normalized to the positive control samples. Any replicate in which the mScarlet value was measured to be over 2 standard deviations less than the mean for that set was discarded from further analysis.
# (§4) For multiple comparisons in the site-saturation screening data, One-way ANOVA with Dunnett’s multiple comparisons test was performed where every sample was compared to the “broken” negative control. Significance was plotted where ∗ represents a p value ≤0.05, ∗∗ is p ≤0.01, and ∗∗∗ is p ≤0.001. Dose–response curves were fit with nonlinear regression software using a four-parameter logistic curve. All statistics were calculated and plotted in Graphpad Prism software.
# P2X2 F303Y+A304W = biological target: T2, P2X2 F303Y+A304W (Homo sapiens, UniProt Q9UBL9, A304W/F303Y); assay: Fast GCaMP-mScarletI assay in yeast, P2X2 F303Y+A304W; assay type: cell-based; details: for Bottom, best fit value / Hillslope, best fit value / Top, best fit value: four-parameter logistic fit of ΔF/ΔT
# T2 construct: expressed in transfected cells; host or cells: S. cerevisiae BY4741 background
# T2 sequence (Q9UBL9 1-471 F303Y/A304W): T1 sequence (Q9UBL9 1-471 F301W/F303Y) with W301F, A304W
# Procedure: as §1, §2, §3, §4
"increased intracellular calcium amplitudes compared to the WT receptor (P2X2 F303Y+A304W; AMP-PNP, abstract)",increased signal compared to the WT channel (rate of signal onset ΔF/ΔT) (P2X2 F303Y+A304W; at 500 μM AMP-PNP) [fold],Structure (SMILES),"Bottom, best fit value (P2X2 F301W+F303Y)","Hillslope, best fit value (P2X2 F301W+F303Y)","Top, best fit value (P2X2 F301W+F303Y)",EC50 (P2X2 F301W+F303Y) [µM],"Bottom, best fit value (P2X2 F303Y+A304W; n = 3)","Hillslope, best fit value (P2X2 F303Y+A304W; n = 3)","Top, best fit value (P2X2 F303Y+A304W; n = 3)","EC50 (P2X2 F303Y+A304W; four-parameter logistic fit, n = 3, unit inferred, unit M, read-out: EC50, best fit value) [µM]"
over 100 fold,73,Nc1ncnc2c1ncn2[C@@H]1O[C@H](COP(=O)(O)OP(=O)(O)NP(=O)(O)O)[C@@H](O)[C@H]1O [AMP-PNP],0.3038,1.304,12.6,260,1.254,2.515,114.4,–
–,–,Nc1ncnc2c1ncn2[C@@H]1O[C@H](COP(=O)(O)OP(=O)(O)OP(=O)(O)O)[C@@H](O)[C@H]1O [ATP],-0.11,0.81,46.60,3.01,1.98,3.50,150.00,6.67
